{"source": "patent US8461160B2", "about": "“Dihydropyrimidinones” (Hoffmann-La Roche, Inc., priority 2009, dated 2013)"}
{"biological_target": "T1, BACE2 (Homo sapiens, UniProt Q9Y5Z0)", "T1 construct": "BACE2 enzyme ectodomain (derived from plasmid “pET17b-T7-hu proBACE2”) was prepared as described in Ostermann et al; T7 tag (N); made in house", "T1 sequence (Q9Y5Z0 21-473 limits assumed)": "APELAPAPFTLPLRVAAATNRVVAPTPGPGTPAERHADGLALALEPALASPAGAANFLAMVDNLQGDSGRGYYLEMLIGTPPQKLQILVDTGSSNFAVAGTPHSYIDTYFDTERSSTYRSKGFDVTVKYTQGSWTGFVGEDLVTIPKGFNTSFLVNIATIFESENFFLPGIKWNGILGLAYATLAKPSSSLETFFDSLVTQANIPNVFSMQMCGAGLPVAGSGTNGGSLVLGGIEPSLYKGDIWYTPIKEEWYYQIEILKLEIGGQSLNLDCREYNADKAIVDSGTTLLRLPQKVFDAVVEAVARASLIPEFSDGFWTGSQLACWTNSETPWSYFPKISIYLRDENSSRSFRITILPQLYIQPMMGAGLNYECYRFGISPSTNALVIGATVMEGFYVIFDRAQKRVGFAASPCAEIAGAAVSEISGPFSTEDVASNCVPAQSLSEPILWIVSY", "experiment": "Fluorescent-peptide cleavage assay for BACE2 inhibition", "assay_type": "biochemical", "details": "BACE2 enzyme ectodomain, fluorescent peptide WS EVNLD AEFRC-MR121, assay buffer pH 4.5, room temperature", "experimental": "Fluorescent-Peptide Cleavage Assay for BACE2 Inhibition\nThe pro-enzyme was stored at 4° C. at a concentration of 70 μg/ml.\nA fluorescent peptide with the amino acid sequence WS EVNLD AEFRC-MR121 was synthesised and a stock solution of 1.5 mM in DMSO prepared and stored at −20° C. MR121 is a fluorophore with an excitation wavelength of 630 nm and emission wavelength of 695 nm. The MR121 fluorescence is quenched by the N-terminal tryptophan until the peptide is cleaved by BACE2.\nAssays were all made in a Corning 384-well black polystyrene non-binding surface microtitre plate with clear flat bottom and using a Plate:Vision (Perkin Elmer) fluorescence reader. To perform the assay an 80 nM solution of BACE2 was prepared in assay buffer (assay buffer is 100 mM Na-acetate; 20 mM EDTA; 0.05% BSA; pH 4.5) and incubated at room temperature for 1 hour to activate the enzyme. 39 μl of the activated BACE2 was placed in each assay well, followed by 1 μl compound to be tested at an appropriate concentration in 100% DMSO. The plate was then mixed and incubated for 10 minutes at room temperature.\nThe assay readout is the rate of change of fluorescence intensity giving a relative measure of BACE2 activity. Small values correspond to high inhibition and larger values to low inhibition. […] IC50 values were determined using these assay values generated for a range of inhibitor concentrations and the curve fitting software XLfit (IDBS) using the Sigmoidal Dose-Response Model.", "units": {"IC50": "nM"}}
{"compound": "CN1C(=O)C[C@@](C)(c2cccc(NC(=O)c3ncccc3Cl)c2)N=C1N", "note": "[Example 28, 3-Chloro-pyridine-2-carboxylic acid [3-((S)-2-amino-1,4-dimethyl-6-oxo-1,4,5,6-tetrahydro-pyrimidin-4-yl)-phenyl]amide]", "IC50": 18}
{"compound": "CN1C(=O)C[C@@](C)(c2cccc(NC(=O)c3cc(Cl)ccn3)c2)N=C1N", "note": "[Example 29, 4-Chloro-pyridine-2-carboxylic acid [3-((S)-2-amino-1,4-dimethyl-6-oxo-1,4,5,6-tetrahydro-pyrimidin-4-yl)-phenyl]-amide]", "IC50": 48}
{"compound": "Cc1ccnc(C(=O)Nc2cccc([C@]3(C)CC(=O)N(C)C(N)=N3)c2)c1", "note": "[Example 30, 4-Methyl-pyridine-2-carboxylic acid [3-((S)-2-amino-1,4-dimethyl-6-oxo-1,4,5,6-tetrahydro-pyrimidin-4-yl)-phenyl]-amide]", "IC50": 150}
{"compound": "CN1C(=O)C[C@@](C)(c2cccc(NC(=O)c3cccc(Cl)n3)c2)N=C1N", "note": "[Example 31, 6-Chloro-pyridine-2-carboxylic acid [3-((S)-2-amino-1,4-dimethyl-6-oxo-1,4,5,6-tetrahydro-pyrimidin-4-yl)-phenyl]-amide]", "IC50": 30}
{"compound": "Cc1cccc(C(=O)Nc2cccc([C@]3(C)CC(=O)N(C)C(N)=N3)c2)n1", "note": "[Example 32, 6-Methyl-pyridine-2-carboxylic acid [3-((S)-2-amino-1,4-dimethyl-6-oxo-1,4,5,6-tetrahydro-pyrimidin-4-yl)-phenyl]-amide]", "IC50": 220}
{"compound": "CN1C(=O)C[C@@](C)(c2cccc(NC(=O)c3cccnc3)c2)N=C1N", "note": "[Example 33, N-[3-((S)-2-Amino-1,4-dimethyl-6-oxo-1,4,5,6-tetrahydro-pyrimidin-4-yl)-phenyl]-nicotinamide]", "IC50": 1100}
{"compound": "CN1C(=O)C[C@@](C)(c2cccc(NC(=O)c3ccccc3)c2)N=C1N", "note": "[Example 34, N-[3-((S)-2-Amino-1,4-dimethyl-6-oxo-1,4,5,6-tetrahydro-pyrimidin-4-yl)-phenyl]-benzamide]", "IC50": 200}
{"compound": "Cc1ncc(C(=O)Nc2cccc([C@]3(C)CC(=O)N(C)C(N)=N3)c2)cn1", "note": "[Example 35, 2-Methyl-pyrimidine-5-carboxylic acid [3-((S)-2-amino-1,4-dimethyl-6-oxo-1,4,5,6-tetrahydro-pyrimidin-4-yl)-phenyl]-amide]", "IC50": 6420}
{"compound": "CN1C(=O)C[C@@](C)(c2cccc(NC(=O)c3c[nH]c(=O)cn3)c2)N=C1N", "note": "[Example 36, 5-Oxo-4,5-dihydro-pyrazine-2-carboxylic acid [3-((S)-2-amino-1,4-dimethyl-6-oxo-1,4,5,6-tetrahydro-pyrimidin-4-yl)-phenyl]-amide]", "IC50": 42}
{"compound": "CN1C(=O)C[C@@](C)(c2cccc(NC(=O)c3ncccc3-c3ccccc3)c2)N=C1N", "note": "[Example 37, 3-Phenyl-pyridine-2-carboxylic acid [3-((S)-2-amino-1,4-dimethyl-6-oxo-1,4,5,6-tetrahydro-pyrimidin-4-yl)-phenyl]-amide]", "IC50": 21}
{"compound": "Cc1nc(C(=O)Nc2cccc([C@]3(C)CC(=O)N(C)C(N)=N3)c2)co1", "note": "[Example 38, 2-Methyl-oxazole-4-carboxylic acid [3-((S)-2-amino-1,4-dimethyl-6-oxo-1,4,5,6-tetrahydro-pyrimidin-4-yl)-phenyl]-amide]", "IC50": 9}
{"compound": "CC[C@@]1(c2cccc(NC(=O)c3ccc(Cl)cn3)c2)CC(=O)N(C)C(N)=N1", "note": "[Example 39, 5-Chloro-pyridine-2-carboxylic acid [3-((S)-2-amino-4-ethyl-1-methyl-6-oxo-1,4,5,6-tetrahydro-pyrimidin-4-yl)-phenyl]-amide]", "IC50": 11}
{"compound": "CC[C@@]1(c2cccc(NC(=O)c3ccccn3)c2)CC(=O)N(C)C(N)=N1", "note": "[Example 40, Pyridine-2-carboxylic acid [3-((S)-2-amino-4-ethyl-1-methyl-6-oxo-1,4,5,6-tetrahydro-pyrimidin-4-yl)-phenyl]-amide]", "IC50": 39}
{"compound": "CC[C@@]1(c2cccc(NC(=O)c3ccc(Cl)s3)c2)CC(=O)N(C)C(N)=N1", "note": "[Example 41, 5-Chloro-thiophene-2-carboxylic acid [3-((S)-2-amino-4-ethyl-1-methyl-6-oxo-1,4,5,6-tetrahydro-pyrimidin-4-yl)-phenyl]-amide]", "IC50": 95}
{"compound": "CC[C@@]1(c2cccc(NC(=O)c3cccc(Cl)n3)c2)CC(=O)N(C)C(N)=N1", "note": "[Example 42, 6-Chloro-pyridine-2-carboxylic acid [3-((S)-2-amino-4-ethyl-1-methyl-6-oxo-1,4,5,6-tetrahydro-pyrimidin-4-yl)-phenyl]-amide]", "IC50": 125}
{"compound": "CC[C@@]1(c2cccc(NC(=O)c3ncccc3Cl)c2)CC(=O)N(C)C(N)=N1", "note": "[Example 43, 3-Chloro-pyridine-2-carboxylic acid [3-((S)-2-amino-4-ethyl-1-methyl-6-oxo-1,4,5,6-tetrahydro-pyrimidin-4-yl)-phenyl]-amide]", "IC50": 87}
{"compound": "CC[C@@]1(c2cccc(NC(=O)c3ncc(Cl)cn3)c2)CC(=O)N(C)C(N)=N1", "note": "[Example 44, 5-Chloro-pyrimidine-2-carboxylic acid [3-((S)-2-amino-4-ethyl-1-methyl-6-oxo-1,4,5,6-tetrahydro-pyrimidin-4-yl)-phenyl]-amide]", "IC50": 7}
{"compound": "CN1C(=N)N[C@](C)(c2cc(NC(=O)c3ccc(Cl)cn3)ccc2F)CC1=O", "note": "[Example 45, 5-Chloro-pyridine-2-carboxylic acid [3-((S)-2-amino-1,4-dimethyl-6-oxo-1,4,5,6-tetrahydro-pyrimidin-4-yl)-4-fluoro-phenyl]amide]", "IC50": 7}
{"compound": "CN1C(=O)C[C@@](C)(c2cc(NC(=O)c3ncc(Cl)cn3)ccc2F)N=C1N", "note": "[Example 46, 5-Chloro-pyrimidine-2-carboxylic acid [3-((S)-2-amino-1,4-dimethyl-6-oxo-1,4,5,6-tetrahydro-pyrimidin-4-yl)-4-fluoro-phenyl]amide]", "IC50": 14}
{"compound": "CN1C(=O)C[C@@](C)(c2cc(NC(=O)c3ccccn3)ccc2F)N=C1N", "note": "[Example 47, Pyridine-2-carboxylic acid [3-((S)-2-amino-1,4-dimethyl-6-oxo-1,4,5,6-tetrahydro-pyrimidin-4-yl)-4-fluoro-phenyl]amide]", "IC50": 8}
{"compound": "CN1C(=N)N[C@](C)(c2cc(NC(=O)c3ccc(C(F)(F)F)cn3)ccc2F)CC1=O", "note": "[Example 48, 5-Trifluoromethyl-pyridine-2-carboxylic acid [3-((S)-2-amino-1,4-dimethyl-6-oxo-1,4,5,6-tetrahydro-pyrimidin-4-yl)-4-fluoro-phenyl]amide]", "IC50": 9}
{"compound": "CCN1C(=O)C[C@@](C)(c2cccc(NC(=O)c3ccc(Cl)cn3)c2)N=C1N", "note": "[Example 49, 5-Chloro-pyridine-2-carboxylic acid [3-((S)-2-amino-1-ethyl-4-methyl-6-oxo-1,4,5,6-tetrahydro-pyrimidin-4-yl)-phenyl]amide]", "IC50": 15}
{"compound": "C[C@@]1(c2cccc(NC(=O)c3ccc(Cl)cn3)c2)CC(=O)N(Cc2ccccc2)C(N)=N1", "note": "[Example 50, 5-Chloro-pyridine-2-carboxylic acid [3-((S)-2-amino-1-benzyl-4-methyl-6-oxo-1,4,5,6-tetrahydro-pyrimidin-4-yl)-phenyl]amide]", "IC50": 10}
{"compound": "C[C@@]1(c2cccc(NC(=O)c3ccc(Cl)cn3)c2)CC(=O)NC(N)=N1", "note": "[Example 51, 5-Chloro-pyridine-2-carboxylic acid [3-((S)-2-amino-4-methyl-6-oxo-1,4,5,6-tetrahydro-pyrimidin-4-yl)-phenyl]amide]", "IC50": 33}
{"compound": "CN1C(=O)C[C@@](C)(c2cncc(NC(=O)c3ccc(Cl)cn3)c2)N=C1N", "note": "[Example 52, 5-Chloro-pyridine-2-carboxylic acid [5-((S)-2-amino-1,4-dimethyl-6-oxo-1,4,5,6-tetrahydro-pyrimidin-4-yl)-pyridin-3-yl]-amide]", "IC50": 11}
{"compound": "CN1C(=O)C(C)(C)[C@@](C)(c2cc(NC(=O)c3ccc(Cl)cn3)ccc2F)N=C1N", "note": "[Example 53, 5-Chloro-pyridine-2-carboxylic acid [3-((S)-2-amino-1,4,5,5-tetramethyl-6-oxo-1,4,5,6-tetrahydro-pyrimidin-4-yl)-4-fluoro-phenyl]amide]", "IC50": 8}
{"compound": "CN1C(=O)C[C@@](C)(c2cccc(NC(=O)c3nc(Cl)ccc3Cl)c2)N=C1N", "note": "[Example 54, 3,6-Dichloro-pyridine-2-carboxylic acid [3-((S)-2-amino-1,4-dimethyl-6-oxo-1,4,5,6-tetrahydro-pyrimidin-4-yl)-phenyl]-amide]", "IC50": 976}
